In brackets after ≈: the same amount, converted by molar mass.
How the values were obtained:
Assay type in all cases: physicochemical
[1] = Photoinduced cis-trans isomerization of 3 in water containing 1% MeOH (HPLC peak areas)
Protocol: To confirm the potential usefulness of this strategy for improving aqueous solubility, we focused on kinase inhibitor 3 [31] (Fig. S2) as representative of pharmaceutical compounds, because the 518 human protein kinases include important drug targets, and the molecular structures of many kinase inhibitors tend to be rather similar. […]
Table S2. Photoinduced isomerization of 3
Light Time (min) cis ratio (%) trans ratio (%)
Compound 3 (10 µM) in a mixture of water and MeOH (1%) was successively exposed to white light and to a 365 nm mercury lamp (0.5 mW/cm2). The cis-trans ratio was calculated from the peak areas in HPLC. […]
Physicochemical properties
The UV-visible absorption spectra of the cis and trans isomers were determined on a UV-visible spectrometer (Shimano, UV-2400PC). Sample solutions in quartz cells were irradiated with a 365 nm mercury lamp (4 W, UVP compact UV lamp, 0.5 mW/cm2), LED UV light (3.3 W, CCS HLV-24UV365-4WNRBTNJ, 344 mW/cm2), or white LED light (5 W, Nikki Trading Corp., NLSS05BM, 68 and 54 mW/cm2 at 450 and 540 nm, respectively) for the indicated times at room temperature. […]

[2] = Aqueous solubilization of 3 under irradiation at various wavelengths (xenon flash lamp, 96-well plate); details: for solubility at 1 h: phosphate buffer, 21 °C, pH 7.4, aqueous buffer, thermodynamic from solid, read-out: Aqueous solubilized 3; for solubility at 1 h / Cis ratio: 1 h
Protocol: Table S4. Aqueous solubilization and cis ratio of 3 under irradiation at various wavelengths through filters of […]
Illumination was performed with a xenon lamp using repeated cycles of irradiation and shaking (5000 flashes, then shaking for 10 sec) through filters of various bandwidths at room temperature (20-22 °C) for 1 h. The cis ratio in the aqueous solution was evaluated by HPLC immediately after filtration, based on peak area. […]
For irradiation at various UV wavelengths, 3 (about 0.1 mg) was ground and taken up in 1/15 M phosphate buffer (pH 7.4, 0.2 mL) in a well of a 96-well white plate. Illumination over a range of wavelength from 355-540 nm was performed using a plate reader EnVision equipped with a xenon flash lamp (35 W, 500 Hz), with excitation filters of appropriate bandwidths. A protocol of irradiation and shaking cycles (5000 flashes, then shaking for 10 sec) was repeated for 1 h at room temperature (20-22 °C). Then, the suspension was filtered through a Millipore Millex-LG (0.20 µm).

[3] = Aqueous dissolution in the dark of UV-irradiated crystals of 3; details: for cis ratio contained in the solution, on average: dissolved in the dark; for cis ratio / solubility at 1 h: 37 °C, 1 h; for solubility at 1 h: phosphate buffer, thermodynamic from solid, read-out: Aqueous solubilized 3
From the text: At the photostationary state under UV irradiation, the equilibria shown in Fig. 3a should be in balance. Here, we are interested in the transient process, i.e., how cis-3 in solution increases when UV irradiation is started. There are two possible routes for generating cis-3 in solution from trans-3 in the solid state: route (i) and (ii). Route (i) is clearly possible, because the process trans solution → cis solution is easily driven by UV irradiation (Fig. S3a). The remaining question is whether cis isomerization of solid 3 is induced under UV irradiation, that is, whether route (ii) also operates. To answer this question, we investigated the aqueous dissolution in the dark of UV-irradiated crystals of 3. The UV-irradiated crystals were clearly more soluble than the unirradiated crystals (Fig. 3b and Table S7). In addition, the cis ratio of UV-irradiated crystals contained in the solution was higher than that of unirradiated crystals (14% vs 4% on average, Table S7). […] Therefore, we conclude that routes (i) and (ii) both operate upon UV irradiation.
Figure 3 (a) Possible equilibria and routes for generating cis-3 in solution. (b) Kinetics of aqueous dissolution of UV-irradiated crystals of 3, measured in the dark. Crystals of 3 were irradiated with 365 nm LED light (344 mW/cm^2) at 37 °C for 3 h. The UV-irradiated crystals and unirradiated crystals were each shaken with phosphate buffer in the dark at 37 °C for 1 h. Data are the mean ± SD of three individual experiments. The asterisk indicates a significant difference (*p < 0.05) from the unirradiated crystals according to the unpaired, two-sided Student’s t-test. […]
Table S7. Aqueous dissolution of UV-irradiated crystals of 3 measured in the dark, and the cis ratio contained […]
Unirradiated crystals UV-irradiated crystals entry Aqueous solubilized 3 cis ratio (%) Aqueous solubilized 3 cis ratio (%) […]
Crystals of 3 were irradiated with 365 nm LED light (344 mW/cm2) at 37 °C for 3 h. It should be noted that […]
The UV-irradiated crystals and unirradiated crystals were each shaken in phosphate buffer in the dark at 37 °C for 1 h.

[4] = 10 µM in water/MeOH (1%), step 1: visible (white light) 10 min
[5] = step 2: UV 365 nm mercury lamp 0.5 mW/cm2, 10 min
[6] = step 4: UV 10 min (second UV exposure)
[7] = wavelength 380 nm, bandwidth 10 nm, room temperature
[8] = wavelength 405 nm, bandwidth 8 nm, room temperature
[9] = wavelength 450 nm, bandwidth 8 nm, room temperature
[10] = wavelength 485 nm, bandwidth 14 nm, room temperature
[11] = wavelength 535 nm, bandwidth 25 nm, room temperature
[12] = wavelength 540 nm, bandwidth 8 nm, room temperature

CC(C)n1nc(/N=N/c2ccccc2)c2c(N)ncnc21 [Compound 3]
cis ratio [1, 4]: 20.3%
trans ratio [1, 4]: 79.7%
cis ratio [1, 5]: 84.8%
trans ratio [1, 5]: 15.2%
cis ratio ([1]; step 3: visible 12 min): 18.3%
trans ratio ([1]; step 3: visible 12 min): 81.7%
cis ratio [1, 6]: 86.9%
trans ratio [1, 6]: 13.1%
cis ratio ([1]; step 5: visible 20 min): 19.4%
trans ratio ([1]; step 5: visible 20 min): 80.6%
trans ratio at photostationary state (maximum) ([2]; irradiation at 535 nm): 93%
solubility at 1 h ([2]; wavelength 355 nm, bandwidth 40 nm, room temperature (20-22 °C)): 4.8 µg/mL (≈ 17.1 µM)
solubility at 1 h [2, 7]: 2.8 µg/mL (≈ 9.95 µM)
solubility at 1 h [2, 8]: 2.4 µg/mL (≈ 8.53 µM)
solubility at 1 h [2, 9]: 0.75 µg/mL (≈ 2.67 µM)
solubility at 1 h [2, 10]: 0.47 µg/mL (≈ 1.67 µM)
solubility at 1 h [2, 11]: 0.57 µg/mL (≈ 2.03 µM)
solubility at 1 h [2, 12]: 0.28 µg/mL (≈ 0.995 µM)
Cis ratio ([2]; wavelength 355 nm, bandwidth 40 nm, room temperature): 90%
Cis ratio [2, 7]: 90%
Cis ratio [2, 8]: 78%
Cis ratio [2, 9]: 44%
Cis ratio [2, 10]: 20%
Cis ratio [2, 11]: 7%
Cis ratio [2, 12]: 7%
cis ratio contained in the solution, on average ([3]; UV-irradiated crystals): 14%
cis ratio ([3]; UV-irradiated crystals, entry 1, dark): 21%
cis ratio ([3]; UV-irradiated crystals, entry 2, dark): 14%
cis ratio ([3]; UV-irradiated crystals, entry 3, dark): 7%
cis ratio ([3]; Unirradiated crystals, entry 1, dark): 5%
cis ratio ([3]; Unirradiated crystals, entry 2, dark): 3%
cis ratio ([3]; Unirradiated crystals, entry 3, dark): 4%
solubility at 1 h ([3]; aqueous buffer, Unirradiated crystals, entry 2, dark): 2.6 µg/mL (≈ 9.24 µM)
solubility at 1 h ([3]; pH 7.4, aqueous buffer, UV-irradiated crystals (365 nm LED 344 mW/cm2, 37 °C, 3 h), entry 1, dark): 3.7 µg/mL (≈ 13.2 µM)
solubility at 1 h ([3]; pH 7.4, aqueous buffer, UV-irradiated crystals, entry 2, dark): 3.4 µg/mL (≈ 12.1 µM)
solubility at 1 h ([3]; pH 7.4, aqueous buffer, UV-irradiated crystals, entry 3, dark): 3.2 µg/mL (≈ 11.4 µM)
solubility at 1 h ([3]; pH 7.4, aqueous buffer, Unirradiated crystals, entry 1, phosphate buffer, dark): 2.8 µg/mL (≈ 9.95 µM)
solubility at 1 h ([3]; pH 7.4, aqueous buffer, Unirradiated crystals, entry 3, dark): 3 µg/mL (≈ 10.7 µM)
cis ratio contained in the solution, on average ([3]; unirradiated crystals): 4%

— article PMC5537305, “Photo-enhanced Aqueous Solubilization of an Azo-compound” (Scientific Reports, 2017)
